Data published in US11447466B2, “Substituted indole compounds useful as inhibitors of TLR7/8/9” (BRISTOL-MYERS SQUIBB COMPANY, priority 2017, dated 2022).

Legend:
Format in all cases: cell-based
[1] = target: T1, human TLR8 (Homo sapiens, UniProt Q9NR97); assay: TLR8 inhibition reporter assay (HEK-Blue SEAP reporter, R848 stimulation); conditions: HEK-Blue cells overexpressing human TLR8, SEAP reporter, R848 15.9 μM, 22 hour incubation
T1 construct: host or cells: HEK-Blue cells
T1 sequence (Q9NR97 27-1041): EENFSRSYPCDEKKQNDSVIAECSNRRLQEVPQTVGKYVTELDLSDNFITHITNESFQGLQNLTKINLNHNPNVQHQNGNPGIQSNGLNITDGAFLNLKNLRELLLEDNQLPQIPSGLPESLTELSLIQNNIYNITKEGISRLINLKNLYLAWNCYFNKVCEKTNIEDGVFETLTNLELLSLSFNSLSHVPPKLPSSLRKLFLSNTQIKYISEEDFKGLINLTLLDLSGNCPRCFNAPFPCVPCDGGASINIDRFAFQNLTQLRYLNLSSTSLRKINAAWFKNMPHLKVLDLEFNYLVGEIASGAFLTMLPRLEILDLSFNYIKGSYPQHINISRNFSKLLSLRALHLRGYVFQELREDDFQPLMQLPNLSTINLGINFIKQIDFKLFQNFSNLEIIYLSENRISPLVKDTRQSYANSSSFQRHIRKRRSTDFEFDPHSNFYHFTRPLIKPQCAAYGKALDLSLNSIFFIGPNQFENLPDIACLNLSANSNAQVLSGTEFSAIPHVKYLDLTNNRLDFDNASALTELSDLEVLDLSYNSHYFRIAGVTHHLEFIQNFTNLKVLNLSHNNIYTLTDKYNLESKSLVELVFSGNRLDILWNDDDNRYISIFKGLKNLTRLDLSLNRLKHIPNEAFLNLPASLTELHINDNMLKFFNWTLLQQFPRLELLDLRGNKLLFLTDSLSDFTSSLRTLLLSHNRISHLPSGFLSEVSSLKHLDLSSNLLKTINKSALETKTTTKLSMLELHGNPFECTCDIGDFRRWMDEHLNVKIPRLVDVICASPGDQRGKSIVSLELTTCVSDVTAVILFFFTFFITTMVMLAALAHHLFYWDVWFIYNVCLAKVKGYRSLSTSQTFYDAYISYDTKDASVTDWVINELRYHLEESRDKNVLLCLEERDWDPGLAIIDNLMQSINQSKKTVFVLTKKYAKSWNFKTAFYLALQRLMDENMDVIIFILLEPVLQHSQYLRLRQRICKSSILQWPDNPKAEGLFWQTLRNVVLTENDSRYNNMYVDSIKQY
Method in brief: (§1)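 Screening used HEK-Blue cells overexpressing one human TLR (7, 8 or 9) and an IFN-β minimal promoter–NF-κB/AP-1 SEAP construct. Stimulation lasted 22 h at 37 °C with receptor-specific agonist: gardiquimod, R848 or ODN2006 at 7.5 μM, 15.9 μM and 5 nM.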

[2] = target: T2, human TLR9 (Homo sapiens, UniProt Q9NR96); assay: TLR9 inhibition reporter assay (HEK-Blue SEAP reporter, ODN2006 stimulation); conditions: HEK-Blue cells overexpressing human TLR9, SEAP reporter, ODN2006 5 nM, 22 hour incubation
T2 construct: host or cells: HEK-Blue cells
T2 sequence (Q9NR96 26-1032): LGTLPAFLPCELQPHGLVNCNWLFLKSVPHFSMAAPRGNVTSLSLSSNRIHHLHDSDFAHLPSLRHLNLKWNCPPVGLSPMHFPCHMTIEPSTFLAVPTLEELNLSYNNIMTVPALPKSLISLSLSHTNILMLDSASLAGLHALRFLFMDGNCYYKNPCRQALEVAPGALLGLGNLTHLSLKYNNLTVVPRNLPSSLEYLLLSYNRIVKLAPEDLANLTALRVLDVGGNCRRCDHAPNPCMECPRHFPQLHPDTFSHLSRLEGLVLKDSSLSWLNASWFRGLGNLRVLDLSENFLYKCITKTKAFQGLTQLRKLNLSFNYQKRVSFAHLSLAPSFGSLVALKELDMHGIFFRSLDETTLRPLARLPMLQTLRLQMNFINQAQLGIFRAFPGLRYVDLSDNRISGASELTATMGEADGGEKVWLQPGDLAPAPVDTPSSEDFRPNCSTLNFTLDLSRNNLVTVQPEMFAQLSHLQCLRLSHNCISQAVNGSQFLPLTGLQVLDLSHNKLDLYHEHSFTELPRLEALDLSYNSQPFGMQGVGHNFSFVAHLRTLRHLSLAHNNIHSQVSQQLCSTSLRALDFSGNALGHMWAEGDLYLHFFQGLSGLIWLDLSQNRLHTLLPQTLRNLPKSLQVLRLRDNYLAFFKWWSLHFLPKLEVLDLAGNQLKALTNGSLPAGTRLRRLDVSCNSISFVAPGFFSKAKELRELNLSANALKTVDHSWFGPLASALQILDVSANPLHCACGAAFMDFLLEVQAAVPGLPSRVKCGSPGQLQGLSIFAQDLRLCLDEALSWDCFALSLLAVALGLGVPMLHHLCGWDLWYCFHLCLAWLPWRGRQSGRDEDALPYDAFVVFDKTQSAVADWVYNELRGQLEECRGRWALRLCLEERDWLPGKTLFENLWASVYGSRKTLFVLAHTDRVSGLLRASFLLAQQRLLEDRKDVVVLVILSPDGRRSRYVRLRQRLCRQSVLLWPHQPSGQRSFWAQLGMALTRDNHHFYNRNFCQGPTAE
Method in brief: as §1

[3] = target: T3, human TLR7 (Homo sapiens, UniProt Q9NYK1); assay: TLR7 inhibition reporter assay (HEK-Blue SEAP reporter, gardiquimod stimulation); conditions: HEK-Blue cells overexpressing human TLR7, SEAP reporter, gardiquimod 7.5 μM, 22 hour incubation
T3 construct: host or cells: HEK-Blue cells
T3 sequence (Q9NYK1 27-1049): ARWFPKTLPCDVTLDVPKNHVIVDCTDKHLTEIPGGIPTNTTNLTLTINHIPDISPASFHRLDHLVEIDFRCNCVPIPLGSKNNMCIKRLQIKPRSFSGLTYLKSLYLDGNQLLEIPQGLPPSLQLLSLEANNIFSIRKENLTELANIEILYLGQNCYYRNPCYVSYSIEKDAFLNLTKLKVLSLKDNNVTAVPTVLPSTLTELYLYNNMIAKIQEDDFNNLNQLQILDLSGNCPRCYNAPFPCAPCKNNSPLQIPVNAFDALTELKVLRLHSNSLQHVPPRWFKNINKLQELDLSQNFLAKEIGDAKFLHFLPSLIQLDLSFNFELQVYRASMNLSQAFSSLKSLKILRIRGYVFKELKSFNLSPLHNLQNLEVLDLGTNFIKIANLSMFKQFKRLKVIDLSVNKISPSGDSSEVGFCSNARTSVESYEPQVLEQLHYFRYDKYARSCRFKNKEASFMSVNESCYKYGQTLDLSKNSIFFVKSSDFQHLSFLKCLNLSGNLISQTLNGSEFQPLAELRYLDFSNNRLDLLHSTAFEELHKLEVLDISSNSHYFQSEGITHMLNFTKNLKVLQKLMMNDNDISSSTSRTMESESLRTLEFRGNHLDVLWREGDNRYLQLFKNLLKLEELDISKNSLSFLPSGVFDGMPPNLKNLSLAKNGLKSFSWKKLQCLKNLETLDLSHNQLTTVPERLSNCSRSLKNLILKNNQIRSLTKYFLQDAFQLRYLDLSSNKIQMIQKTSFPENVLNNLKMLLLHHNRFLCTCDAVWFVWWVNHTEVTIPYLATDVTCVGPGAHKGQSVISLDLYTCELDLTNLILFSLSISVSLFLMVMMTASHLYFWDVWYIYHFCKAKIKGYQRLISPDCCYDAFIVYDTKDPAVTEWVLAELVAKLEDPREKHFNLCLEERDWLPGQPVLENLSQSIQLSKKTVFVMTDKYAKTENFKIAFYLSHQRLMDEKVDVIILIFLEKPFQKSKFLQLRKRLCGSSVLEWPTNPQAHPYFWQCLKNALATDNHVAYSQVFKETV
Method in brief: as §1

Row | Compound | IC50 [1] | IC50 [2] | IC50 [3]
1 | Cc1cc(-c2[nH]c3ccc(C4CCNCC4)cc3c2C(C)C)cn(CC(F)F)c1=O [Example 40, 1-(2,2-difluoroethyl)-5-(3-isopropyl-5-(piperidin-4-yl)-1H-indol-2-yl)-3-methylpyridin-2(1H)-one] | 16.9 nM | 4450 nM | 5.2 nM
2 | CC(C)c1c(-c2cc(C(F)(F)F)c(=O)n(C)c2)[nH]c2ccc(C3CCNCC3)cc12 [Example 41, 5-(3-isopropyl-5-(piperidin-4-yl)-1H-indol-2-yl)-1-methyl-3-(trifluoromethyl)pyridin-2(1H)-one] | 158 nM | 1120 nM | 18 nM
3 | Cc1cc(-c2[nH]c3ccc(C4CCNCC4)cc3c2C(C)C)cn(C2CCOC2)c1=O (stereo not drawn) [Example 42, 5-(3-isopropyl-5-(piperidin-4-yl)-1H-indol-2-yl)-3-methyl-1-(tetrahydrofuran-3-yl)pyridin-2(1H)-one] | 134 nM | 6710 nM | 40.9 nM
4 | Cc1cc(-c2[nH]c3ccc(C4CCNCC4)cc3c2C(C)C)cn(CC(C)(C)O)c1=O [Example 43, 1-(2-hydroxy-2-methylpropyl)-5-(3-isopropyl-5-(piperidin-4-yl)-1H-indol-2-yl)-3-methylpyridin-2(1H)-one] | 157 nM | 1560 nM | 110 nM
5 | Cc1cc(-c2[nH]c3ccc(C4CCNCC4)cc3c2C(C)C)cn(-c2ccccc2)c1=O [Example 44, 5-(3-isopropyl-5-(piperidin-4-yl)-1H-indol-2-yl)-3-methyl-1-phenylpyridin-2(1H)-one] | 19.4 nM | 2080 nM | 3.8 nM
6 | Cc1cc(-c2[nH]c3ccc(C4CCNCC4)cc3c2C(C)C)cn(CC(F)(F)F)c1=O [Example 45, 5-(3-isopropyl-5-(piperidin-4-yl)-1H-indol-2-yl)-3-methyl-1-(2,2,2-trifluoroethyl)pyridin-2(1H)-one] | 48.4 nM | 4670 nM | 12.9 nM
7 | Cc1cc(-c2[nH]c3ccc(C4CCNCC4)cc3c2C(C)C)cn(Cc2ccccc2)c1=O [Example 46, 1-benzyl-5-(3-isopropyl-5-(piperidin-4-yl)-1H-indol-2-yl)-3-methylpyridin-2(1H)-one] | 29.9 nM | 919 nM | 2.9 nM
8 | CC(C)c1c(-c2cc(C#N)c(=O)n(C)c2)[nH]c2ccc(C3CCNCC3)cc12 [Example 47, 5-(3-isopropyl-5-(piperidin-4-yl)-1H-indol-2-yl)-1-methyl-2-oxo-1,2-dihydropyridine-3-carbonitrile] | 41.1 nM | 1890 nM | 31.9 nM
9 | CC(C)c1c(-c2ccc(=O)n(CC(C)(C)O)c2)[nH]c2ccc(C3CCNCC3)cc12 [Example 48, 1-(2-hydroxy-2-methylpropyl)-5-(3-isopropyl-5-(piperidin-4-yl)-1H-indol-2-yl)pyridin-2(1H)-one] | ≥ 50000 nM | 1270 nM | 13900 nM
10 | CC(C)c1c(-c2ccc(=O)n(CC(N)=O)c2)[nH]c2ccc(C3CCNCC3)cc12 [Example 49, 2-(5-(3-isopropyl-5-(piperidin-4-yl)-1H-indol-2-yl)-2-oxopyridin-1(2H)-yl)acetamide] | 2090 nM | ≥ 50000 nM | 2610 nM
11 | CC(C)c1c(-c2cc(-c3cccnc3)c(=O)n(C)c2)[nH]c2ccc(C3CCNCC3)cc12 [Example 50, 5-(3-isopropyl-5-(piperidin-4-yl)-1H-indol-2-yl)-1-methyl-[3,3′-bipyridin]-2(1H)-one] | 7.7 nM | 411 nM | 6.8 nM
12 | C=C(C)c1cc(-c2[nH]c3ccc(C4CCNCC4)cc3c2C(C)C)cn(C)c1=O [Example 51, 5-(3-isopropyl-5-(piperidin-4-yl)-1H-indol-2-yl)-1-methyl-3-(prop-1-en-2-yl)pyridin-2(1H)-one] | 30.6 nM | 2580 nM | 10.9 nM
13 | CC(C)c1c(-c2cc(/C=C/C3CC3)c(=O)n(C)c2)[nH]c2ccc(C3CCNCC3)cc12 [Example 52, (E)-3-(2-cyclopropylvinyl)-5-(3-isopropyl-5-(piperidin-4-yl)-1H-indol-2-yl)-1-methylpyridin-2(1H)-one] | 142 nM | 1520 nM | 185 nM
14 | CC(C)c1c(-c2cc(-c3cncnc3)c(=O)n(C)c2)[nH]c2ccc(C3CCNCC3)cc12 [Example 54, 5-(3-isopropyl-5-(piperidin-4-yl)-1H-indol-2-yl)-1-methyl-3-(pyrimidin-5-yl)pyridin-2(1H)-one] | 5.9 nM | 753 nM | 23.4 nM
15 | Cc1ccc(-c2cc(-c3[nH]c4ccc(C5CCNCC5)cc4c3C(C)C)cn(C)c2=O)cc1 [Example 55, 5-(3-isopropyl-5-(piperidin-4-yl)-1H-indol-2-yl)-1-methyl-3-(p-tolyl) pyridin-2(1H)-one] | 203 nM | 2290 nM | 13.9 nM
